Source: patent US6890951B2, “Treatment of addiction and addiction-related behavior” (Brookhaven Science Associates LLC, priority 1998, dated 2005)
“Also recorded” adds a separate entry of the source. Like-named read-outs stand apart in the source and are kept apart here.

Tests used:
male Sprague-Dawley rats = type: in vivo
Description: In all rodent studies, male Sprague-Dawley rats were used (200-225 g, Taconic farms, Germantown, N.Y.). Animals were allowed to acclimate to the animal housing facility for at least 5 days prior to beginning the experiments. […] The conditioning procedure for the acquisition phase consisted of 12 sessions carried out consecutively over 12 days.
The animals in each group were randomly assigned to a 2×2 factorial design with one factor being the pairing chamber and the other factor being the order of conditioning. The animals that received either saline or cocaine were injected and confined to the appropriate compartment for 30 minutes.
[…] The amount of time spent in each chamber was recorded using an automated infrared beam electronically coupled to a timer.
In this example the procedure outlined in Section 2 of Materials and Methods was followed.

rats = assay: Nicotine-induced conditioned place preference; type: in vivo
Description: A total of 8 rats were examined for each treatment pairing. Animals received 4 pairings over an 8 day period, one pairing per day. […] The protocol on days 1 and 2 was repeated 3 additional times.
The CPP apparatus was made entirely of plexiglass, except for the floor in one of the pairing chambers, which was made of a stainless steel plate with holes (0.5 mm in diameter) spaced 0.5 mm from edge to edge. The two pairing chambers differed in visual and tactile cues. One chamber was entirely light blue with the stainless steel floor and the second chamber was light blue with horizontal black stripes (2.5 cm wide) spaced 3.8 cm apart with a smooth plexiglass floor.
The conditioning procedure consisted of 20 sessions carried out consecutively over 20 days. The first three sessions were habituation sessions, during which the animals were handled for 5 minutes per day and exposed to the sights and sounds of the test room. […] The amount of time spent in each chamber was recorded using an automated infrared beam electronically coupled to a timer.
The animals were habituated as described above. […] Subsequently, the animals were then placed into the appropriate chamber for 30 minutes. This was repeated for 8 pairings over a 16 day period. On the test day, animals were placed in the CPP apparatus and allowed free access to the all of the CPP chambers and the amount of time spent in chamber was recorded.

[1] = tested on: extracellular DA in the NACC; assay: Microdialysis: methamphetamine-induced increases in NACC DA; type: in vivo, rats; conditions: Rattus norvegicus
Description: All animals were used under an IACUC-approved protocol and with strict adherence to the NIH guidelines. Adult male Sprague-Dawley rats (200-300 g, Taconic Farms), housed in the animals care facility under 12:12 light/dark conditions, were placed into 6 groups (n=5-9), anesthetized and siliconized guide cannulae were stereotactically implanted into the right NACC (2.0 mm anterior and 1.0 mm lateral to bregms, and 7.0 mm ventral to the cortical surface) at least 4 days prior to study. Microdialysis probes (2.0 mm, Bioanalytical Systems, BAS, West Lafayette, Ind.) were positioned within the guide cannulae and artificial cerebrospinal fluid (ACSF, 155.0 mM NA^−, 1.1 mM Ca^2−, 2.9 mM K^−, 132.76 mM Cl^−, and 0.83 mM Mg^2−) was administered through the probe using a CMA/100 microinfusion pump (BAS) at a flow rate of 2.0 μl/min. Animals were placed in bowls, and probes were inserted and flushed with ACSF overnight. On the day of the study, a minimum of three samples were injected to determine baseline stability. Samples were collected for 20 min. and injected on-line (CMA/160, BAS). The average Dopamine concentration of these three stable samples was defined as control (100%), and all subsequent treatment values were transformed to a percentage of that control. […] The high performance liquid chromatography (HPLC) system consists of a BAS reverse-phase column (3.0 μC-18), a BAS LC-4C electrochemical transducer with a dual/glassy carbon electrode set at 650 mV, a computer that analyzes data on-line using a commercial software package (Chromograph Bioanalytical Systems), and a dual pen chart recorder. The mobile phase (flow rate 1.0 ml/min) consisted of 7.0% methanol, 50 mM sodium phosphate monobasic, 1.0 mM sodium octyl sulfate, and 0.1 mm […], pH 4.0. DA eluted at 7.5 min. Upon completion of the study, animals were decapitated and frozen sections were obtained for probe placement verification.
Methamphetamine at a dose of 1.25 mg/kg i.p. and 2.5 mg/kg i.p. was administered to the animals. It was noted that methamphetamine elevated extracellular DA concentrations in the NACC by approximately 2500% over basal levels, 100 minutes following administration of 2.5 mg/kg and approximately 1500% over basal levels following administration of 1.25 mg/kg (FIG. 6). DA returned to basal levels approximately 200 minutes following administration.

[2] = tested on: extracellular DA in the NACC; assay: Microdialysis: ethanol-induced increases in NACC DA; type: in vivo, rats; conditions: Rattus norvegicus
Description: All animals were used under an IACUC-approved protocol and with strict adherence to the NIH guidelines. Adult male Sprague-Dawley rats (200-300 g, Taconic Farms), housed in the animals care facility under 12:12 light/dark conditions, were placed into 6 groups (n=5-9), anesthetized and siliconized guide cannulae were stereotactically implanted into the right NACC (2.0 mm anterior and 1.0 mm lateral to bregms, and 7.0 mm ventral to the cortical surface) at least 4 days prior to study. […] Animals were placed in bowls, and probes were inserted and flushed with ACSF overnight. On the day of the study, a minimum of three samples were injected to determine baseline stability. Samples were collected for 20 min. and injected on-line (CMA/160, BAS). The average Dopamine concentration of these three stable samples was defined as control (100%), and all subsequent treatment values were transformed to a percentage of that control. […] The high performance liquid chromatography (HPLC) system consists of a BAS reverse-phase column (3.0 μC-18), a BAS LC-4C electrochemical transducer with a dual/glassy carbon electrode set at 650 mV, a computer that analyzes data on-line using a commercial software package (Chromograph Bioanalytical Systems), and a dual pen chart recorder. The mobile phase (flow rate 1.0 ml/min) consisted of 7.0% methanol, 50 mM sodium phosphate monobasic, 1.0 mM sodium octyl sulfate, and 0.1 mm EDNA, pH 4.0. […] Upon completion of the study, animals were decapitated and frozen sections were obtained for probe placement verification.
Ethanol at a dose of 1.0 g/kg i.p. was administered to the animals.

[3] = in vivo; cited from earlier work
[4] = acquisition, 75 mg/kg GVG 2.5 hours prior to cocaine 20 mg/kg
[5] = acquisition, 75 mg/kg GVG/Saline pairing
[6] = acquisition, 112 mg/kg GVG 2.5 hours prior to cocaine 20 mg/kg
[7] = acquisition, 112 mg/kg GVG/Saline pairing
[8] = acquisition, 150 mg/kg GVG 2.5 hours prior to cocaine 20 mg/kg
[9] = acquisition, 150 mg/kg GVG/Saline pairing
[10] = acquisition, 300 mg/kg GVG 2.5 hours prior to cocaine 20 mg/kg
[11] = acquisition, 300 mg/kg GVG/Saline pairing
[12] = expression, Saline/Cocaine pairings, GVG 75 mg/kg on test day
[13] = expression, Saline/Cocaine pairings, GVG 112 mg/kg on test day
[14] = expression, Saline/Cocaine pairings, GVG 150 mg/kg on test day
[15] = expression, Saline/Cocaine pairings, GVG 300 mg/kg on test day
[16] = expression, Saline/Saline pairings, GVG 112 mg/kg on test day
[17] = expression, Saline/Saline pairings, GVG 150 mg/kg on test day
[18] = expression, Saline/Saline pairings, GVG 300 mg/kg on test day
[19] = acquisition, GVG 37.5 mg/kg i.p. 2.5 hours before nicotine 0.4 mg/kg s.c., 8 pairings
[20] = acquisition, GVG 75 mg/kg i.p. 2.5 hours before nicotine 0.4 mg/kg s.c., 8 pairings
[21] = acquisition, GVG 75 mg/kg i.p. 2.5 hours prior to nicotine 0.4 mg/kg s.c. (Table XII)
[22] = expression, Saline/Nicotine pairings, GVG 37.5 mg/kg on test day
[23] = expression, Saline/Nicotine pairings, GVG 75 mg/kg on test day
[24] = expression, Saline/Nicotine pairings, GVG 150 mg/kg on test day

C=CC(N)CCC(=O)O (racemic) [GVG, 4-amino-5-hexanoic acid]
acquisition and expression of cocaine-induced CPP (male Sprague-Dawley rats; GVG 75 mg/kg, cocaine 20 mg/kg): not | Time spent in chambers, Paired (male Sprague-Dawley rats; [4]): 9.1 ± 1.1 min | Time spent in chambers, Unpaired (male Sprague-Dawley rats; [4]): 5.9 ± 1.2 min | Time spent in chambers, Paired (male Sprague-Dawley rats; [5]): 7.3 ± 0.5 min | Time spent in chambers, Unpaired (male Sprague-Dawley rats; [5]): 7.7 ± 0.6 min | Time spent in chambers, Paired (male Sprague-Dawley rats; [6]): 8.2 ± 0.5 min | Time spent in chambers, Unpaired (male Sprague-Dawley rats; [6]): 6.8 ± 0.5 min | Time spent in chambers, Paired (male Sprague-Dawley rats; [7]): 7.6 ± 0.6 min | Time spent in chambers, Unpaired (male Sprague-Dawley rats; [7]): 7.4 ± 0.6 min | Time spent in chambers, Paired (male Sprague-Dawley rats; [8]): 7.9 ± 0.8 min | Time spent in chambers, Unpaired (male Sprague-Dawley rats; [8]): 7.1 ± 0.8 min | Time spent in chambers, Paired (male Sprague-Dawley rats; [9]): 7.8 ± 0.6 min | Time spent in chambers, Unpaired (male Sprague-Dawley rats; [9]): 7.2 ± 0.6 min | Time spent in chambers, Paired (male Sprague-Dawley rats; [10]): 7.6 ± 0.7 min | Time spent in chambers, Unpaired (male Sprague-Dawley rats; [10]): 7.2 ± 0.7 min | Time spent in chambers, Paired (male Sprague-Dawley rats; [11]): 7.2 ± 0.4 min | Time spent in chambers, Unpaired (male Sprague-Dawley rats; [11]): 7.8 ± 0.4 min | Time spent in chambers, Paired (male Sprague-Dawley rats; [12]): 10.6 ± 0.6^3 min | Time spent in chambers, Unpaired (male Sprague-Dawley rats; [12]): 4.4 ± 0.9 min | Time spent in chambers, Paired (male Sprague-Dawley rats; [13]): 8.1 ± 0.7 min | Time spent in chambers, Unpaired (male Sprague-Dawley rats; [13]): 6.9 ± 0.6 min | Time spent in chambers, Paired (male Sprague-Dawley rats; [14]): 7.9 ± 0.3 min | Time spent in chambers, Unpaired (male Sprague-Dawley rats; [14]): 7.1 ± 0.3 min | Time spent in chambers, Paired (male Sprague-Dawley rats; [15]): 7.9 ± 0.5 min | Time spent in chambers, Unpaired (male Sprague-Dawley rats; [15]): 7.1 ± 0.6 min | Time spent in chambers, Paired (male Sprague-Dawley rats; [16]): 7.2 ± 0.3 min | Time spent in chambers, Unpaired (male Sprague-Dawley rats; [16]): 7.8 ± 0.3 min | Time spent in chambers, Paired (male Sprague-Dawley rats; [17]): 7.7 ± 0.2 min | Time spent in chambers, Unpaired (male Sprague-Dawley rats; [17]): 7.3 ± 1.1 min | Time spent in chambers, Paired (male Sprague-Dawley rats; [18]): 7.3 ± 0.4 min | Time spent in chambers, Unpaired (male Sprague-Dawley rats; [18]): 7.7 ± 0.3 min | acquisition of nicotine-induced CPP (rats; GVG 37.5 mg/kg): did not significantly block and not | acquisition phase of nicotine-induced CPP (rats; GVG 75 mg/kg): significantly blocked; also recorded: abolish | Time spent in chambers, Paired (rats; [19]): 8.8 ± 0.5 min | Time spent in chambers, Unpaired (rats; [19]): 6.2 ± 0.5 min | Time spent in chambers, Paired (rats; [20]): 6.9 ± 0.9 min | Time spent in chambers, Unpaired (rats; [20]): 8.1 ± 0.9 min | Time spent in chambers, Paired (rats; [21]): 6.4 ± 0.3^4 min | Time spent in chambers, Unpaired (rats; [21]): 8.6 ± 0.3^5 min | Time spent in chambers, Paired (rats; [22]): 6.8 ± 1.0 min | Time spent in chambers, Unpaired (rats; [22]): 8.2 ± 1.0 min | Time spent in chambers, Paired (rats; [23]): 6.4 ± 0.3 min | Time spent in chambers, Unpaired (rats; [23]): 8.6 ± 0.3 min | Time spent in chambers, Paired (rats; [24]): 5.0 ± 0.9 min | Time spent in chambers, Unpaired (rats; [24]): 10.0 ± 0.9 min | inhibition at 300 mg/kg [1]: ~38% | inhibition at 600 mg/kg [1]: ~58% | inhibition at 300 mg/kg [2]: ~50% | inhibition at 100 mg/kg ([2]; read-out: inhibition of alcohol's ability to increase nucleus accumbens dopamine): ~40% | excretion [3]: excreted primarily unchanged in the urine; also recorded: excreted primarily in the unchanged form by the kidneys | interaction with the hepatic microsomal enzymes [3]: does not interact with the hepatic microsomal enzymes
